Source: patent US9701628B2, “12-epi pleuromutilins” (NABRIVA THERAPEUTICS AG, priority 2014, dated 2017)
≈ marks a conversion by molar mass, not a printed value. Structures can show the parent of a compound that is named as a salt. Where two headings read alike, the source gives them in different places.

How the values were obtained:
[1] = system: Escherichia coli ATCC25922; assay: MIC by broth microdilution (CLSI) against Escherichia coli ATCC 25922; format: cell-based; details: Escherichia coli ATCC25922, in vitro
Procedure: (§1) The in vitro activity against aerobic bacteria was determined by Broth Microdilution Test according to the Clinical and Laboratory Standards Institute (CLSI, former NCCLS) Document M7-A9 Vol 32, No 2 “Methods for Dilution Antimicrobial Susceptibility Tests for Bacteria that Grow Aerobically; Approved Standard—Ninth Edition (2012)”; and the test against anaerobic bacteria was performed by Agar Dilution Test according to the Clinical and Laboratory Standards Institute (CLSI, former NCCLS), Document, M11-A8, Vol. 32, No. 5: “Methods for Antimicrobial Susceptibility Testing of Anaerobic Bacteria; Approved Standard—Eighth Edition (2012)”. Performance standards and interpretive criteria followed the CLSI Document, M100-S23: “Performance Standards for Antimicrobial Susceptibility Testing; Twenty-Third Informational Supplement” (2013). The in vivo activity was tested by the septicaemia mouse model against Staphylococcus aureus and Escherichia coli.
(§2) The antibacterial activity expressed as minimal inhibitory concentration (MIC) was determined according to the approved standard reference recommendations of CLSI (former NCCLS) as described in the description of the application.

[2] = system: Staphylococcus aureus ATCC 49951; assay: MIC by broth microdilution (CLSI) against Staphylococcus aureus ATCC 49951; format: cell-based; details: Staphylococcus aureus ATCC 49951, in vitro
Procedure: as §1, §2

| Molecule | MIC [1] | MIC [2] | MIC ([1]; read-out: MIC) | MIC ([2]; ATCC49951, read-out: MIC) |
| --- | --- | --- | --- | --- |
| 12-epi-12-desvinyl-14-O-{[1-(2-Amino-acetyl)-piperidin-4-yl-methylsulfanyl]-acetyl}-12-[(4-aminomethyl-phenylamino)-methyl] mutilin trihydrochloride [Example 81] | 8 µg/mL | 0.125 µg/mL |  |  |
| C=C[C@]1(C)C[C@@H](OC(=O)CSC(C)(C)CNC(=O)[C@H](N)C(C)C)[C@]2(C)[C@H](C)CC[C@]3(CCC(=O)[C@H]32)[C@@H](C)[C@@H]1O [Econor, econor, reference compound] | 32 µg/mL (≈ 56.7 µM) | ≦0.03 μg/mL |  |  |
| C[C@@H]1CC[C@@]23CCC(=O)[C@H]2[C@]1(C)[C@H](OC(=O)CSc1ccc(CC(=O)NCCCN)cc1)C[C@](C)(CNCCCN)[C@@H](O)[C@@H]3C [Example 1, 12-epi-12-desvinyl-14-O-{{4-[(3-Amino-propylcarbamoyl)-methyl]-phenylsulfanyl}-acetyl}-12-[(3-amino-propylamino)-methyl] mutilin trihydrochloride] |  |  | 0.5 µg/mL | ≤ 0.03 µg/mL |
| CC1C(O)C(C)(CNCc2ccc(CN)cc2)CC(OC(=O)CSc2ccc(CC(=O)NCCCN)cc2)C2(C)C(C)CCC13CCC(=O)C32.Cl.Cl.Cl (stereo not drawn) [Example 9, 12-epi-12-desvinyl-14-O-{{4-[(3-Amino-propylcarbamoyl)-methyl]-phenylsulfanyl}-acetyl}-12-[(4-aminomethyl-benzylamino)-methyl] mutilin trihydrochloride] | 0.5 µg/mL | ≦0.03 μg/mL |  |  |
| CC1C(O)C(C)(CNCCCCCCNC(=N)N)CC(OC(=O)CSc2ccc(CC(=O)NCCCN)cc2)C2(C)C(C)CCC13CCC(=O)C32.Cl.Cl.Cl (stereo not drawn) [Example 11, 12-epi-12-desvinyl-14-O-{{4-[(3-Amino-propylcarbamoyl)-methyl]-phenylsulfanyl}-acetyl}-12-[(6-guanidino-hexylamino)-methyl] mutilin trihydrochloride] | 0.25 µg/mL | ≦0.03 μg/mL |  |  |
| C[C@@H]1CC[C@@]23CCC(=O)[C@H]2[C@]1(C)[C@H](OC(=O)CSc1ccc(C(=O)NCc2ccc(CN)cc2)cc1)C[C@](C)(CNCCCCCCN)[C@@H](O)[C@@H]3C [Example 23, 12-epi-12-desvinyl-14-O-{[4-(4-Aminomethyl-benzylcarbamoyl)-phenylsulfanyl]-acetyl}-12-[(6-amino-hexylamino)-methyl] mutilin trihydrochloride] |  |  | 1 µg/mL | ≤ 0.03 µg/mL |
| C[C@@H]1CC[C@@]23CCC(=O)[C@H]2[C@]1(C)[C@H](OC(=O)CSC1CCC(CN)CC1)C[C@](C)(CNCCCCCCN)[C@@H](O)[C@@H]3C (stereo partly drawn) [Example 47, 12-epi-12-desvinyl-14-O-{[(4-Aminomethyl-cyclohexyl)-sulfanyl]-acetyl}-12-[(6-amino-hexylamino)-methyl] mutilin trihydrochloride] |  |  | 0.5 µg/mL | ≤ 0.03 µg/mL |
| C[C@@H]1CC[C@@]23CCC(=O)[C@H]2[C@]1(C)[C@H](OC(=O)CSc1ccc(CCCN)cc1)C[C@](C)(CNCCCCCCN)[C@@H](O)[C@@H]3C [Example 48, 12-epi-12-desvinyl-14-O-{[4-(3-Amino-propyl)-phenylsulfanyl]-acetyl}-12-[(6-amino-hexylamino)-methyl] mutilin trihydrochloride] |  |  | 0.25 µg/mL | ≤ 0.03 µg/mL |
| C[C@@H]1CC[C@@]23CCC(=O)[C@H]2[C@]1(C)[C@H](OC(=O)CSc1ccc(CC(=O)NCCCN)cc1)C[C@](C)(CCNCCCN)[C@@H](O)[C@@H]3C [Example 52, 12-epi-12-desvinyl-14-O-{{4-[(3-Amino-propylcarbamoyl)-methyl]-phenylsulfanyl}-acetyl}-12-[2-(3-amino-propylamino)-ethyl] mutilin trihydrochloride] |  |  | 0.5 µg/mL | ≤ 0.03 µg/mL |
| CC1C(O)C(C)(CNCCCCCCN)CC(OC(=O)CSc2cccc(CO)c2)C2(C)C(C)CCC13CCC(=O)C32.Cl.Cl (stereo not drawn) [Example 54, 12-epi-12-desvinyl-14-O-[(3-Hydroxymethyl-phenylsulfanyl)-acetyl]-12-[(6-amino-hexylamino)-methyl] mutilin dihydrochloride] | 4 µg/mL | 0.125 µg/mL |  |  |
| C[C@@H]1CC[C@@]23CCC(=O)[C@H]2[C@]1(C)[C@H](OC(=O)CS[C@@H]1CC[C@@H](N)C[C@H]1O)C[C@](C)(CNCCCN)[C@@H](O)[C@@H]3C.Cl.Cl.Cl [Example 62, 12-epi-12-desvinyl-14-O-{[(1R,2R,4R)-4-Amino-2-hydroxy-cyclohexylsulfanyl]-acetyl}-12-[(3-amino-propylamino)-methyl] mutilin trihydrochloride] | 4 µg/mL | 0.25 µg/mL |  |  |
| CC1C(O)C(C)(CNCc2ccc(CN)cc2)CC(OC(=O)CSCCO)C2(C)C(C)CCC13CCC(=O)C32.Cl.Cl (stereo not drawn) [Example 64, 12-epi-12-desvinyl-14-O-[(2-Hydroxy-ethylsulfanyl)-acetyl]-12-[(4-aminomethyl-benzylamino)-methyl] mutilin dihydrochloride] | 4 µg/mL | 0.5 µg/mL |  |  |
| CC1C(O)C(C)(CNCc2ccc(CN)cc2)CC(OC(=O)CSCCN)C2(C)C(C)CCC13CCC(=O)C32.Cl.Cl.Cl (stereo not drawn) [Example 65, 12-epi-12-desvinyl-14-O-[(2-Amino-ethylsulfanyl)-acetyl]-12-[(4-aminomethyl-benzylamino)-methyl] mutilin trihydrochloride] | 2 µg/mL | 0.5 µg/mL |  |  |
| C[C@@H]1CC[C@@]23CCC(=O)[C@H]2[C@]1(C)[C@H](OC(=O)CSc1nnc(N)[nH]1)C[C@](C)(CNCCCCCCN)[C@@H](O)[C@@H]3C.Cl.Cl.Cl [Example 66, 12-epi-12-desvinyl-14-O-{[(5-Amino-4H-1,2,4-triazol-3-yl)-sulfanyl]-acetyl}-12-[(6-amino-hexylamino)-methyl] mutilin trihydrochloride] | 4 µg/mL | 0.5 µg/mL |  |  |
| CC1C(O)C(C)(CNCCCCCCN)CC(OC(=O)CSc2ccncc2)C2(C)C(C)CCC13CCC(=O)C32.Cl.Cl.Cl (stereo not drawn) [Example 68, 12-epi-12-desvinyl-14-O-[(Pyridin-4-ylsulfanyl)-acetyl]-12-[(6-amino-hexylamino)-methyl] mutilin trihydrochloride] | 4 µg/mL | 0.25 µg/mL |  |  |
| C[C@@H]1CC[C@@]23CCC(=O)[C@H]2[C@]1(C)[C@H](OC(=O)CSC1CCN(C(=O)CN)CC1)C[C@](C)(CNCc1ccc(CN)cc1)[C@@H](O)[C@@H]3C [Example 78, 12-epi-12-desvinyl-14-O-{[1-(2-Amino-acetyl)-piperidin-4-yl-sulfanyl)]-acetyl}-12-[(4-aminomethyl-benzylamino)-methyl] mutilin trihydrochloride] |  |  | 2 µg/mL | 0.5 µg/mL |
| C[C@@H]1CC[C@@]23CCC(=O)[C@H]2[C@]1(C)[C@H](OC(=O)CSC1CCN(C(=O)CN)CC1)C[C@](C)(CNCc1ccc(OCCN)cc1)[C@@H](O)[C@@H]3C [Example 83, 12-epi-12-desvinyl-14-O-{[1-(2-Amino-acetyl)-piperidin-4-yl-sulfanyl]-acetyl}-12{2-[4-(2-amino-ethoxy)-benzylamino]-methyl} mutilin trihydrochloride] |  |  | 1 µg/mL | 0.25 µg/mL |
| C[C@@H]1CC[C@@]23CCC(=O)[C@H]2[C@]1(C)[C@H](OC(=O)CSc1cccc(CN)c1)C[C@](C)(CNCCCN)[C@@H](O)[C@@H]3C.Cl.Cl.Cl [Example 86, 12-epi-12-desvinyl-14-O-[(3-Aminomethyl-phenylsulfanyl)-acetyl]-12-[(3-amino-propylamino)-methyl] mutilin trihydrochloride] | 0.5 µg/mL | 0.06 µg/mL |  |  |
| C[C@@H]1CC[C@@]23CCC(=O)[C@H]2[C@]1(C)[C@H](OC(=O)CSc1ccc(CN)cn1)C[C@](C)(CNCc1ccc(CN)cc1)[C@@H](O)[C@@H]3C [Example 98, 12-epi-12-desvinyl-14-O-{[5-Aminomethyl-pyridin-2-yl-sulfanyl)]-acetyl}-12-[(4-aminomethyl-benzylamino)-methyl] mutilin tetrahydrochloride] |  |  | 0.5 µg/mL | 0.125 µg/mL |
| C[C@@H]1CC[C@@]23CCC(=O)[C@H]2[C@]1(C)[C@H](OC(=O)CSc1ccc(CN)cn1)C[C@](C)(CNCc1ccc(CN)c(F)c1)[C@@H](O)[C@@H]3C [Example 99, 12-epi-12-Desvinyl-14-O-{[5-aminomethyl-pyridin-2-yl-sulfanyl)]-acetyl}-12-[(4-aminomethyl-3-fluoro-benzylamino)-methyl] mutilin tetrahydrochloride] |  |  | 0.5 µg/mL | 0.25 µg/mL |
| CC1C(O)C(C)(CNCc2cc(F)c(CN)cc2F)CC(OC(=O)CSc2ccc(CN)cn2)C2(C)C(C)CCC13CCC(=O)C32.Cl.Cl.Cl.Cl (stereo not drawn) [Example 103, 12-epi-12-desvinyl-14-O-{[5-Aminomethyl-pyridin-2-yl-sulfanyl]-acetyl}-12-[(4-aminomethyl-2,5-difluoro-benzylamino)-methyl] mutilin tetrahydrochloride] | 4 µg/mL | 0.5 µg/mL |  |  |
| CC1C(O)C(C)(CNCCCN)CC(OC(=O)CSc2ccc(CNCc3ccc(CN)cc3)cc2)C2(C)C(C)CCC13CCC(=O)C32.Cl.Cl.Cl.Cl (stereo not drawn) [Example 115, 12-epi-12-desvinyl-14-O-{{4-[(4-Aminomethyl-benzylamino)-methyl]-phenylsulfanyl}-acetyl}-12-[(3-amino-propylamino)-methyl] mutilin tetrahydrochloride] | 0.25 µg/mL | ≦0.03 μg/mL |  |  |
